Entries after “also recorded” stand apart in the source; their conditions may differ.
Tests used:
human HHAT [1] = target: T1, human HHAT (Homo sapiens, UniProt Q5VTY9); assay: Acyl-cLIP assay, dose-response inhibition of purified HHAT; assay type: biochemical; details: for HHAT inhibition (in words) / IC50: purified HHAT; for HHAT inhibition (in words): Acyl-cLIP; for IC50: real-time Acyl-cLIP, mean and 95 % CI, n=3
T1 construct: Full-length human HHAT (UniProt Q5VTY9); made in house
Procedure: We recently reported the acylation‐coupled lipophilic induction of polarization (Acyl‐cLIP) assay, a facile and universally applicable method to monitor enzymes processing lipid post‐translational modifications which uses the hydrophobicity increase on lipidation to drive a polarized fluorescence readout. ^[15] Dose‐response analysis of inhibition of purified HHAT was conducted using real‐time Acyl‐cLIP analysis (Table 1).
AMBIC (ammonium bicarbonate); CDI (1,1’-carbonyldiimidazole); DCM (dichloromethane); DDM (n-dodecyl-β-D-maltopyranoside); DIPEA (N,N-diisopropylethylamine); DMF (dimethylformamide); DTT (dithiothreitol); EDTA (ethylenediaminetetraacetic acid); FAM (5/6-carboxyfluorescein); HEPES (4-(2-hydroxyethyl)-1-piperazineethanesulfonic acid); HOBt (hydroxybenzotriazole); TBME (tert-butyl methyl ether); TBTA (tris[(1-benzyl-1H-1,2,3-triazol-4-yl)methyl]amine); TCEP (tris(2-carboxyethyl)phosphine hydrochloride); TEA (triethylamine); TFA (trifluoroacetic acid); THF (tetrahydrofuran); TRIS (tris(hydroxymethyl)aminomethane).
All reagents were purchased from commercial sources (Sigma-Aldrich, Fisher Scientific, Acros Organics, Novabiochem) and used without further purification.
Pal-CoA (Sigma Aldrich) was stored in NaOAc (0.1 M, pH 6.0) at -80 °C. RUSKI-201 (1) was synthesised as previously described.[1b] The peptide comprising of residues 24-43 of SHH (residues 1-10 of the mature protein) labelled with 5/6-carboxyfluorescein (SHH-FAM) was prepared as previously described.
Mixtures described as % represent v/v unless otherwise stated.
Biological and Biochemical Methods
Full-length human HHAT (UniProt Q5VTY9) C -terminally fused with a 1D4 epitope tag was expressed and purified via antibody purification with Rho -1D4 antibody (University of British Columbia) coupled to CNBr-activated sepharose beads (GE Healthcare) as previously described.[9] Purified HHAT 0.1-0.2 mg/mL in storage buffer (10 mM HEPES, 150 mM NaCl, 5% glycerol, 0.025% (w/v) DDM, 0.0006% (w/v) cholesterol-hemisuccinate, pH 7.5) was flash-frozen in liquid nitrogen and stored at -80 °C.
The Acylation-coupled Lipophilic Induction of Polarisation (Acyl -cLIP) was performed as previously described,[9] using Rho-1D4 antibody purified HHAT. Briefly, HHAT was diluted to 45 µg/mL in solubilisation buffer (20 mM HEPES, 350 mM NaCl, 1% (w/v) DDM, 5% glycerol, pH 7.3) added to SHH-FAM (2 µM) in reaction buffer (100 mM MES, 20 mM NaCl, 1 mM DTT, 1 mM TCEP, 0.1% (w/v) BSA, pH 6.5) in a 1:10 (v/v) ratio, respectively. The HHAT/SHH-FAM solution (12 µL/well) was dispensed into a black 384-well plate (Corning, 3575). The reaction was initiated by addition of Pal-CoA (7.5 µM) in reaction buffer (8 µL/well), and fluorescence anisotropy measured every 1 min for 1 h on an EnVision Xcite 2104 (PerkinElmer).
Measurement used a FITC FP D505fp mirror module, FITC FP 480 nm excitation filter (30 nm bandwidth), FITC FP P-pol 535 nm first emission filter (40 nm bandwidth), and FITC FP S-pol […]
(§1) 535 nm second emission filter (40 nm bandwidth), measurement height = 9.52 mm, 8 flashes/well, PMT gain = 319, and G-factor = 1.09. Fluorescence anisotropy was calculated […]
(§2) Where S is signal in the S-channel, P is signal in the P-channel, and G is the G-factor.
(§3) Assay data were evaluated using Microsoft Excel 2013 and GraphPad Prism 5.0. Initial rate constants were determined by linear regression, normalized to DMSO negative controls and background corrected to positive controls with solubilization buffer instead of HHAT. The half-maximal inhibitory concentration (IC 50) was calculated using a 4-parameter sigmoidal dose-response curve fit. Determination of the mechanism of inhibition of IMP -1575 relative to Pal-CoA was performed by fitting equation 2 for a mixed model of inhibition[10] using nonlinear […]
Where v is the observed rate of reaction, Vmax is the maximum rate, [I] is the inhibitor concentration, [S] is the substrate concentration, Km is the substrate concentration at ½ Vmax, […]

human HHAT [2] = target: T1, human HHAT; assay: Photocrosslinking to purified HHAT, CalFluor-647 CuAAC and in-gel fluorescence; assay type: binding; details: for crosslinking of probe to HHAT (in-gel fluorescence): probe 10 μM, purified HHAT, UV 365 nm 1 min
From the text: These new insights led to design of photocrosslinking chemical probes 10 and 11 to investigate the small‐molecule binding site in HHAT (Figure 2 A). In probe 10 the secondary amine moiety was exchanged for a diazirine group, and the terminal alkyl chain replaced with an alkyne; probe 11 contains an additional carbon between the carbonyl and diazirine. The diazirine allows photoactivated chemical crosslinking to nearby residues in HHAT, with the alkyne allowing biorthogonal functionalization via copper(I)‐catalyzed azide‐alkyne cycloaddition (CuAAC, “click chemistry”) for subsequent analysis. […] The sidechains were synthesized and coupled to 2 (Scheme S4,5). […] Protein crosslinking was next investigated through CuAAC functionalization with a fluorophore and in‐gel fluorescence readout. As an integral membrane protein, HHAT presents substantial challenges in sample handling and cannot be precipitated to remove excess fluorophore which otherwise binds non‐specifically (data not shown). Fluorogenic azide CalFluor‐647 (Figure S8) ^[18] was therefore used to reduce background fluorescence from dye that had not reacted with alkyne probe. 10 or 11 (10 μM) were incubated with purified HHAT with or without UV irradiation (1 min). […]
Molecule for alignment. Compounds 1-9 (R)-enantiomers and IC50 values from the Acyl-cLIP assay were used as a Training Set . For the purpose of analysis of weakly active inhibitors, […]
Conformation Hunt was set to Normal, Alignment set to Normal, and Build Model set to Field
QSAR. Probes 10 and 11 were used as a Prediction Set .
Photoactivation Analysis by LC/MS
A solution of 10 or 11 (100 μM) in water was cooled on ice and irradiated using a custom-made UV light source (365 nm, 25 mW/cm2) for the indicated times. […]
All steps were performed in the dark in a cold room (4 °C), until specified otherwise. […] The gel was run until the loading dye had eluted from the gel (typically 55 min at 200 V) and the in-gel fluorescence […]
recorded (Excitation: 635 nm Emission: 669 nm) on a Typhoon FLA 9500 (GE Healthcare). […]

human HHAT [3] = target: T1, human HHAT; assay: Acyl-cLIP inhibition kinetics at varying Pal-CoA concentrations (mixed model of inhibition); assay type: biochemical
Procedure: IMP‐1575 (50–0.023 μM) was therefore analyzed for effects on HHAT kinetics at varying Pal‐CoA concentrations (50–0.19 μM, Figure 3 B,C).
as §1, §2, §3
Where v is the observed rate of reaction, Vmax is the maximum rate, [I] is the inhibitor concentration, [S] is the substrate concentration, Km is the substrate concentration at ½ Vmax, Ki is the affinity of the inhibitor for the free enzyme, and α is the ratio of the affinity of the inhibitor for the enzyme-substrate complex (Ki’) to Ki (typically noted as Ki’/Ki).
Density-Functional Theory Modelling
Density-functional theory (DFT) predictions were performed using Gaussian 16 [11] and Orca (version 4.0.1.2).[12] The compound 6 structure was initially created using Avogadro software (1.2.0) and geometry -optimised using an MMFF94s force field. Avogadro was also employed to explore conformers of the structure using a “systematic rotor search”. DFT geometry optimisations were initially carried out on the MMFF94s optimised structures using either the 6-31G basis set (for the B3LYP and M062X functionals) or the def2/SVP basis set (for the CAM-B3LYP functional). Structures were then optimised with a higher -level basis set (6-311++G(d,p), for the B3LYP and M062X functional, and def2/TZVP for the CAM-B3LYP functional). […]

HHAT = target: HHAT; set-up: method as in PMID 23416332; details: reported as noncompetitive with Pal-CoA; cited from earlier work
[4] = Photoactivation analysis by LC/MS under UV irradiation (365 nm); assay type: physicochemical; details: 100 μM in water on ice

T1 sequence (Q5VTY9 whole entry): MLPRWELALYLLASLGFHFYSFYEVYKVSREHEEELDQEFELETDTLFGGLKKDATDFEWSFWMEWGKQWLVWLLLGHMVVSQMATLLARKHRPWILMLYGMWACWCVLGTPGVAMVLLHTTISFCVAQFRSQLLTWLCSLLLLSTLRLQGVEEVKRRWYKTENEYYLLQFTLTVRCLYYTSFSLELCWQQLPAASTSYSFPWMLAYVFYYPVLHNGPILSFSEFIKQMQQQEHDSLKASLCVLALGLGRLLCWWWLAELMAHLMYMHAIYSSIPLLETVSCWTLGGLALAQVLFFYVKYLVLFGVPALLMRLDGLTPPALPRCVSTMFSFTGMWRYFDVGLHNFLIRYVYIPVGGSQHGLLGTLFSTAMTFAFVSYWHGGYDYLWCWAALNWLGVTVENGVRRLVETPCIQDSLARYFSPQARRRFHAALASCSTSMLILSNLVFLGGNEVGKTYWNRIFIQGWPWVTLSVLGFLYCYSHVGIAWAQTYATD

SMILES	HHAT inhibition (in words) (human HHAT [1])	IC50 (human HHAT [1]) [µM]	further results
Cc1cccc(C2NCCc3sccc32)n1 (stereo not shown) [Compound 2]	no inhibition	> 50	–
Cc1cccc([C@H]2c3ccsc3CCN2C(=O)CNCC(C)C)n1 [(+)-6]	–	0.75	potency compared to (+/-)-6 (human HHAT [1]; from Acyl-cLIP IC50): two‐fold increased potency; competition of probe 11 crosslinking to HHAT (human HHAT [2]; 40-fold excess IMP-1575 (400 μM) vs probe 11 (10 μM)): reduced crosslinking to near background levels; Ki (human HHAT [3]; competitive with respect to Pal-CoA, IMP-1575 50-0.023 μM, Pal-CoA 50-0.19 μM, mixed model fit): 0.038 µM; mode of inhibition with respect to Pal-CoA (human HHAT [3]; mixed model analysis): competitive; α (mixed model equation for inhibition) (human HHAT [3]; ratio Ki'/Ki, with respect to Pal-CoA): 470
Cc1cccc(C2c3ccsc3CCN2C(=O)CNCCC(C)C)n1 (stereo not shown) [Compound 5]	–	5.8	–
Cc1cccc(C2c3ccsc3CCN2C(=O)CNCC(C)C)n1 (stereo not shown) [Compound 6]	–	1.3	–
CCC(C)CNCC(=O)N1CCc2sccc2C1COc1cccc(C)c1 (stereo not shown) [RUSKI-43]	–	–	Ki (HHAT): 6.9 µM
Cc1cccc(C2c3ccsc3CCN2C(=O)CNCC(C)C)n1 (single isomer, unassigned; (-)) [(-)-6]	no HHAT inhibition	> 50	–
CC[C@H](C)CNCC(=O)N1CCc2sccc2C1c1cccc(C)n1 (stereo partly shown) [Compound 4]	–	3.7	fold reduced potency compared to 1 (human HHAT [1]; from Acyl-cLIP IC50): ≈ 2 fold
CC(=O)N1CCc2sccc2C1c1cccc(C)n1 (stereo not shown) [Compound 3]	–	13	–

The next lines start with results.

HHAT inhibition (in words) (human HHAT [1])	IC50 (human HHAT [1]) [µM]	SMILES	further results
substantially reduced activity	~50	Cc1cccc(C2c3ccsc3CCN2C(=O)NCCC(C)C)n1 (stereo not shown) [Compound 9]	–
–	2.4	C#CCCC1(CCC(=O)N2CCc3sccc3C2c2cccc(C)n2)N=N1 (stereo not shown) [Compound 11]	crosslinking of probe to HHAT (in-gel fluorescence) (human HHAT [2]): crosslinking of probe 11 to HHAT promoted by UV irradiation; also recorded: enhanced labelling with UV irradiation; activation half-life [4]: 0.533 min
–	16	C#CCCC1(CC(=O)N2CCc3sccc3C2c2cccc(C)n2)N=N1 (stereo not shown) [Compound 10]	crosslinking of probe to HHAT (in-gel fluorescence) (human HHAT [2]): minimal crosslinking; also recorded: minimal labelling; activation half-life [4]: 3.3 min
substantially reduced activity	~25	Cc1cccc(C2c3ccsc3CCN2C(=O)CN(C)CC(C)C)n1 (stereo not shown) [Compound 7]	–
substantially reduced activity	~50	Cc1cccc(C2c3ccsc3CCN2C(=O)CN2CCCC(C)C2)n1 (stereo not shown) [Compound 8]	–

— publication PMC8252026, “Photochemical Probe Identification of a Small‐Molecule Inhibitor Binding Site in Hedgehog Acyltransferase (HHAT)” (Angewandte Chemie (International Ed. in English), 2021)
